From patent US20170202822A1, “METHODS AND COMPOSITIONS FOR ENHANCING CANCER THERAPY” (THE SCRIPPS RESEARCH INSTITUTE, priority 2014, published 2017)

Assays:
[1] = system: MCF7 cells; assay: Proliferation of MCF7 cells (shCtrl vs shNAMPT) by crystal violet staining; assay type: cell-based, human; conditions: for restoration of tamoxifen sensitivity: ER+/NAMPT-low MCF7 cells, 1, 5 or 10 mM NAM or 1 or 5 mM NR
Protocol: (§1) NAMPT knockdown (shNAMPT) reduced NAMPT (A) mRNA and (B) protein expression in MCF7 and T47D cells compared to controls transduced with scrambled shRNA (shCtrl). (A) NAMPT mRNA levels were analyzed by real time PCR and are expressed relative to beta-D-glucuronidase (GUSB) (***P<0.001) (n=3). (B) NAMPT protein expression was analyzed by Western blot analysis. Quantification of NAMPT protein was related to β-tubulin expression. […] Cellular NAD was analyzed in whole cell extracts of 1×10^6 cells. Metabolite concentrations were determined using a NAD+/NADH fluorescence detection kit (Cell Technology, Inc) and normalized to protein content. (D) Proliferation of control (shCtrl) vs NAMPT-knockdown (shNAMPT) MCF7 and T47D cells, untreated or treated with 0.001, 0.05, 0.1, 1, or 5 μM 4-hydroxytamoxifen (tamoxifen active metabolite) for 14 days. Proliferation was measured based on crystal violet staining and is expressed as % of proliferation of untreated cells. Groups were compared by unpaired two-tailed Student's t-test in n=4 (***P<0.001, **P<0.01 *P<0.05).
(A) Effect of nicotinamide treatment (10 mM NAM) on proliferation of control (shCtrl) vs NAMPT-knockdown (shNAMPT) MCF7 and T47D cells exposed to 1 μM or 0.1 μM 4-hydroxytamoxifen (tamoxifen active metabolite) respectively for 14 days. Proliferation was measured based on crystal violet staining and is expressed as % of proliferation of untreated cells (no 4-hydroxytamoxifen, no NAM). Groups were compared by unpaired two-tailed Student's t-test in n=4 (***P<0.001, **P<0.01 *P<0.05). (B) NAMPT KD cells present reduced absolute levels of NAD′ and nicotinamide treatment induces NAD^+ and NADH levels in both control (CT) or NAMPT KD (shNAMPT) breast cancer cells. NAD^+ and NADH were analyzed independently in whole cell extracts of 1×10^6 cells. Metabolite concentrations were determined using a NAD^+/NADH fluorescence detection kit (Cell Technology, Inc). (C) Distribution of ERα in MCF7 shCT or shNAMPT cells, measured after 7 days of cell treatment with 10 mM nicotinamide in EMEM medium, supplemented with 10% FBS. ERα localization was detected by immunofluorescence using anti-ERα clone SP1 (Thermo Fisher). Nuclei were detected by DAPI staining. Representative images are shown.
Nicotinamide riboside (NR) was more efficient than nicotinamide in blocking low-NAMPT-induced tamoxifen resistance. Proliferation of control (shCT) vs NAMPT-knockdown (shNAMPT) MCF7 cells treated with 1 or 5 μM 4-hydroxytamoxifen (tamoxifen active metabolite) for 7 days with or without (A) 1, 5 or 10 mM nicotinamide (NAM) or (B) 1 or 5 mM nicotinamide riboside (NR). Proliferation was measured based on crystal violet staining and is expressed as % of proliferation of untreated cells (no 4-hydroxytamoxifen). Groups were compared by unpaired two-tailed Student's t-test in n=4 (***P<0.001, **P<0.01 *P<0.05).

[2] = system: MCF7 cells; assay: Growth of MCF7 cells in estrogen-free, phenol red-free medium, crystal violet staining; assay type: cell-based, human; conditions: for proliferation with 4-hydroxytamoxifen: 10 nM E2 + 1 μM 4-hydroxytamoxifen; for sensitization to tamoxifen's antiproliferative effects: 1 μM 4-hydroxytamoxifen
Protocol: (A) Growth of control (shCtrl) vs NAMPT knockdown (shNAMPT) MCF7 cells cultured for 7 days in EMEM medium supplemented with 10% FBS, or in phenol red-free EMEM supplemented with 10% charcoal-stripped estrogen-free FBS. Growth was measured by crystal violet staining after 7 days in culture. Groups were compared by unpaired two-tailed Student's t-test in n=3 (***P<0.001). (B) Growth of control (shCtrl) vs NAMPT knockdown (shNAMPT) MCF7 cells cultured in estrogen-free, phenol red-freeEMEM medium supplemented with 10% charcoal-stripped FBS. […] Growth was measured by crystal violet staining after 7 days in culture. Groups were compared by unpaired two-tailed Student's t-test in n=3 (*P<0.05,[…],***P<0.001). (C) Changes in NAD^+ levels impact the subcellular localization of ERα. […] Estrogen starvation and treatment were performed in phenol red-free EMEM supplemented with 10% charcoal-stripped FBS. ERα was detected by immunofluorescence using Pierce anti-ERα antibody (MA1-39539). Representative images are shown for all conditions.
To further analyze the regulatory role of NAMPT and the NAD^+ salvage pathway in estrogen-dependent growth and tamoxifen treatment, we first analyzed the capacity of MCF7 variant cells to grow in estrogen-free media. […] Importantly, low NAMPT expressing MCF7 cells (shNAMPT) had the capacity to proliferate even in the absence of estrogens (FIG. 6A). […] Furthermore, NAM treatment sensitized shCT and re-sensitized shNAMPT cells to tamoxifen's antiproliferative effects (FIG. 6B). In FIG. 4C, we analyzed the ERα localization in MCF7 cells when the cells were cultured in EMEM medium supplemented with 10% FBS, serum that contain hormones and growth factors that modulate ERα localization independently of the presence of estrogens (Muriel Le Romancer et al., Endocrine Reviews, October 2011, 32(5):597-622). In order to deeply analyze the role of NAMPT and NAM treatment on modulating ligand-dependent ERα nuclear localization, we starved the cells from any growth factor and hormones including estrogens for 72 hours by growing them in phenol red-free EMEM/10% charcoal-stripped FBS. Then, breast cancer cells were cultured for 24 hours with or without 10 nM E2, or with 10 nM E2 plus 10 mM NAM. […] In the absence of estrogens, ERα was distributed in the cytoplasm of control cells while in shNAMPT expressing cells ERα was concentrated in the nuclei.

[3] = system: T47D cells; assay: Proliferation of T47D cells (shCtrl vs shNAMPT) by crystal violet staining; assay type: cell-based, human; conditions: 14 days
Protocol: as §1, with “(D) Proliferation of control (shCtrl) vs NAMPT-knockdown (shNAMPT) MCF7 and T47D cells, untreated or treated with 0.001, 0.05, 0.1, 1, or 5 μM 4-hydroxytamoxifen (tamoxifen active metabolite) for 14 days.” left out, “Groups were compared by unpaired two-tailed Student's t-test in n=4 (***P<0.001, **P<0.01 *P<0.05).” left out
(§2) (A) Effect of nicotinamide treatment (10 mM NAM) on proliferation of control (shCtrl) vs NAMPT-knockdown (shNAMPT) MCF7 and T47D cells exposed to 1 μM or 0.1 μM 4-hydroxytamoxifen (tamoxifen active metabolite) respectively for 14 days. Proliferation was measured based on crystal violet staining and is expressed as % of proliferation of untreated cells (no 4-hydroxytamoxifen, no NAM). […] NAD^+ and NADH were analyzed independently in whole cell extracts of 1×10^6 cells. Metabolite concentrations were determined using a NAD^+/NADH fluorescence detection kit (Cell Technology, Inc). […] Nuclei were detected by DAPI staining. […]

[4] = system: MDA-MB-231 cells; assay: Proliferation of triple negative MDA-MB-231 cells by crystal violet staining; assay type: cell-based, human; conditions: 10 mM NAM, 0.5, 1 or 5 μM 4-hydroxytamoxifen, 14 days
Protocol: Proliferation of triple negative breast MDA-MB-231 cells, untreated or treated with 0.5, 1 or 5 μM 4-hydroxytamoxifen (tamoxifen active metabolite) for 14 days, with or without treatment with 10 mM nicotinamide (NAM). Proliferation was measured based on crystal violet staining and is expressed as % of proliferation of untreated cells (no 4-hydroxytamoxifen, no NAM). Groups were compared by unpaired two-tailed Student's t-test in n=3 (**P<0.01).

[5] = system: cellular NAD^+; assay: Cellular NAD+ in whole cell extracts, NAD+/NADH fluorescence detection kit; assay type: cell-based, human; conditions: MCF7 cells expressing basal or low NAMPT levels
Protocol: as §1, with “(D) Proliferation of control (shCtrl) vs NAMPT-knockdown (shNAMPT) MCF7 and T47D cells, untreated or treated with 0.001, 0.05, 0.1, 1, or 5 μM 4-hydroxytamoxifen (tamoxifen active metabolite) for 14 days.” left out, “Groups were compared by unpaired two-tailed Student's t-test in n=4 (***P<0.001, **P<0.01 *P<0.05).” left out
as §2

[6] = system: ERα
[7] = 1 or 5 μM 4-hydroxytamoxifen, 7 days
[8] = MCF7 shNAMPT, 10 mM NAM, 7 days

How did the “anti-proliferative efficacy of 4-hydroxytamoxifen on reduction of NAMPT expression” value ([1]; MCF7 shNAMPT vs shCtrl, 0.001-5 μM, 14 days) turn out when 4-hydroxytamoxifen was run?
Its value is “dramatically reduced the anti-proliferative efficacy”.

And the “proliferation with 4-hydroxytamoxifen” value ([2]; MCF7 shCT, 7 days)?
The value was “able to reduce proliferation”.

And the “proliferation with 4-hydroxytamoxifen” value ([2]; MCF7 shNAMPT, 7 days)?
The value was “not in shNAMPT”.

And the “anti-proliferative efficacy of 4-hydroxytamoxifen on reduction of NAMPT expression” value ([3]; T47D shNAMPT vs shCtrl, 0.001-5 μM)?
The value was “dramatically reduced the anti-proliferative efficacy”.

For `C[C@]12CC[C@@H]3c4ccc(O)cc4CC[C@H]3[C@@H]1CC[C@@H]2O` [17-β-estradiol], which “proliferation with 17-β-estradiol” value ([2]; MCF7 shCT, 10 nM E2, 7 days, estrogen-free medium) is on record?
The value was “induced proliferation”.

For `NC(=O)c1cccnc1` [NAM, nicotinamide], which “restoration of tamoxifen sensitivity” value [1, 7] is on record?
The value was “restore tamoxifen sensitivity”.

And the “effect of NAM on anti-proliferative efficacy of 4-hydroxytamoxifen” value ([1]; MCF7 shCtrl and shNAMPT, 10 mM NAM, 1 μM 4-hydroxytamoxifen, 14 days)?
Its value is “enhanced the anti-proliferative efficacy of 4-hydroxytamoxifen”.

And the “sensitization to tamoxifen's antiproliferative effects” value ([2]; MCF7 shCT, 10 mM NAM, 7 days)?
The value was “sensitized”.

What about the estrogen-induced proliferation ([2]; MCF7 shCT, 10 mM NAM, 7 days) of the same compound?
Its estrogen-induced proliferation is “dramatically inhibited”.

And the “sensitization to tamoxifen's antiproliferative effects” value [2, 8]?
Its value is “re-sensitized”.

And the estrogen-independent growth [2, 8]?
Its estrogen-independent growth is “dramatically inhibited”.

And the “sensitization to tamoxifen-induced antiproliferative effects” value [4]?
Its value is “sensitized MDA-MB-231 to tamoxifen-induced antiproliferative effects”.

What about the “NAD+ levels after NAM treatment” value [5] of the same compound?
The value was “induced significantly NAD^+ levels”.

And the “ERα nuclear localization with NAM” value ([6]; MCF7 control and shNAMPT, estrogen starved 72 h, 10 nM E2 plus 10 mM NAM, 24 h)?
Its value is “inhibited ERα nuclear localization”.

What about the “ERα expression and nuclear localization” value ([6]; MCF7 shCT or shNAMPT, 10 mM nicotinamide, 7 days, EMEM with 10% FBS) of the same compound?
The value was “do not affect estrogen receptor alpha (ERα) expression and nuclear localization”.

What about the “effect of NAM on anti-proliferative efficacy of 4-hydroxytamoxifen” value ([3]; T47D shCtrl and shNAMPT, 10 mM NAM, 0.1 μM 4-hydroxytamoxifen) of the same compound?
The value was “enhanced the anti-proliferative efficacy of 4-hydroxytamoxifen”.

With `NC(=O)c1ccc[n+]([C@@H]2O[C@H](CO)[C@@H](O)[C@H]2O)c1` [nicotinamide riboside] as the compound, how does the “activity in restoring Tamoxifen sensitivity compared with NAM” value ([1]; ER+/NAMPT low (shNAMPT) MCF7 cells, 1 or 5 mM NR, 1 or 5 μM 4-hydroxytamoxifen, 7 days) read?
Its value is “more potent activity than NAM”.

What about the “restoration of tamoxifen sensitivity” value [1, 7] of the same compound?
The value was “restore tamoxifen sensitivity”.
